Series [1] deals with MV4-11. As to the kind of experiment: Cell cycle arrest in human MV4-11 cells assessed as accumulation of cells at S-phase at 1.25 uM measured after 24 hrs by propidium iodide staining based flow cytometry (reference value: 23.35%). Type of series: functional. In general terms: A flow cytometer gives signals particle by particle.
The nature of series [2]: Toxicity in human COLO 205 cells xenografted CD1 nu/nu mouse at 25 to 100 mg/kg, po administered once daily via gavage for 21 days. Type of series: organism-based. As to conditions: in vivo, dose 25-100 mg/kg, time 21 day.
In series [3] the test system is MV4-11. As to the kind of experiment: Cell cycle arrest in human MV4-11 cells assessed as accumulation of cells at S-phase at 2.5 uM measured after 24 hrs by propidium iodide staining based flow cytometry (reference value: 23.35%). Type of series: functional.
For series [4], the target named is Mitogen-activated protein kinase 10 (Homo sapiens) (UniProt P53779). The conditions noted are these: Sf21, dose 200.0 nM.
Chain of Mitogen-activated protein kinase 10 (Homo sapiens) (P53779 whole entry): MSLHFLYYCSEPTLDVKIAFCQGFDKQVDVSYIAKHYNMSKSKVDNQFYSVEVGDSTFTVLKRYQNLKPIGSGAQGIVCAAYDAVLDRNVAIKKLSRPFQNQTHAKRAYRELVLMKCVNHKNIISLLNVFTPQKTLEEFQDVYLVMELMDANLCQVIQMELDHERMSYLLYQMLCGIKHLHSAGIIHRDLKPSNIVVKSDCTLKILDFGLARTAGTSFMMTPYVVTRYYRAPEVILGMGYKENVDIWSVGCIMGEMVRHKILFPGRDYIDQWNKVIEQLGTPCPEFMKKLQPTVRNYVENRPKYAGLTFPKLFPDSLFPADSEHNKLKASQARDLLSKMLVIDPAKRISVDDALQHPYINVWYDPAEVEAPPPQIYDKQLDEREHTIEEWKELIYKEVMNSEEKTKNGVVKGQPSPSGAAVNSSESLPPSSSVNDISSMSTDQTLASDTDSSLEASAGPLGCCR
Description: Inhibition of recombinant human N-terminal His6-tagged JNK3 expressed in baculovirus infected Sf21 insect cells relative to control
The next series is filed under the species Mus musculus. The conditions noted are these: CD1, dose 50.0 mg/kg, route po, time 17.0 day.
Series [5] in a line: Toxicity in human COLO 205 cells xenografted CD1 nu/nu mouse assessed as change in cecum histology at 50 mg/kg, po administered daily via gavage for 56 days and measured on day 41 to 69 by histopathological analysis. In kind it is organism-based. The conditions noted are these: in vivo, 1344 h, time 41-69 day. For orientation: A xenograft is tissue or cells of one species grown in another, often human tumour cells in immunodeficient mice.

The test system of series [6] is T1, Receptor-type tyrosine-protein kinase FLT3 (Homo sapiens), P36888 [D835Y].
T1 sequence (whole entry): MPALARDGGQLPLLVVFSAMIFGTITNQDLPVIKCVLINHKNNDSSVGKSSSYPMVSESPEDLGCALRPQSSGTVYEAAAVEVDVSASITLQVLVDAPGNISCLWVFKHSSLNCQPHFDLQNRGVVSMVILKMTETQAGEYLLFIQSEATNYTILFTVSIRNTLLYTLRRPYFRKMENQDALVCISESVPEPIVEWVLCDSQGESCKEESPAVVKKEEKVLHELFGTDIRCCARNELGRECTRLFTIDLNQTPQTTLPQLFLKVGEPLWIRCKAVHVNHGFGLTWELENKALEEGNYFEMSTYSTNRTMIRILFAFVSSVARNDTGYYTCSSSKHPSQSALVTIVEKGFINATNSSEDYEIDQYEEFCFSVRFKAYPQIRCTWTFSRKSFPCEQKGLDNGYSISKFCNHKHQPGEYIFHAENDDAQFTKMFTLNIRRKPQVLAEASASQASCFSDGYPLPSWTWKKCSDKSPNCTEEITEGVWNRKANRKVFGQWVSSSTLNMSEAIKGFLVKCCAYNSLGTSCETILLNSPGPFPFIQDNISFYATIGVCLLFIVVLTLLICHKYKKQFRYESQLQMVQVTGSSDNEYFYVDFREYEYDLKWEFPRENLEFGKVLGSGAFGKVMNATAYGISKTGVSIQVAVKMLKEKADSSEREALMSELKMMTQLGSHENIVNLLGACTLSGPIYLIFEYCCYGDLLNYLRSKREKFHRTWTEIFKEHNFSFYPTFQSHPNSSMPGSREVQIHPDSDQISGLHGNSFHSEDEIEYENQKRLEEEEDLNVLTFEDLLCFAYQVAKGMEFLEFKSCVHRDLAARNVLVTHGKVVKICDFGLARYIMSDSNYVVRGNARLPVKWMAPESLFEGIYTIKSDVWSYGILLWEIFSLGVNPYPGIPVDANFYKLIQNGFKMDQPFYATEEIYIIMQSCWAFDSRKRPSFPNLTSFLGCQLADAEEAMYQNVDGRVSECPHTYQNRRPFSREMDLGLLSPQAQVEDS
The conditions noted are these: Sf21, dose 200.0 nM.

Series [7] in a line: Toxicity in human Calu-6 cells xenografted CD1 nu/nu mouse assessed as body weight loss at 50 mg/kg, po administered once daily via gavage for 21 days measured twice per week during compound dosing in presence of gemcitabine. Type of series: organism-based. The conditions noted are these: in vivo, time 21 day.
In a further series the test system is MDA-MB-231. As to the kind of experiment: Cell cycle arrest in human MDA-MB-231 cells assessed as accumulation of cells at S-phase at 0.16 uM measured after 24 hrs by propidium iodide staining based flow cytometry (reference value: 38.27%). Type of series: functional.
For series [8], the system named is COLO 205. The conditions noted are these: Mus musculus, CD1, dose 100.0 mg/kg, route po, time 21.0 day.
Series [9] concerns Calu-6. As to conditions: Homo sapiens, dose 50.0 mg/kg, route po, time 21.0 day.
The nature of series [10]: Toxicity in human COLO 205 cells xenografted CD1 nu/nu mouse assessed as change in ileum histology at 50 mg/kg, po administered daily via gavage for 2 cycles of 3 weeks on/1 week rest and measured on day 41 to 69 by histopathological analysis. Type of series: organism-based. As to conditions: in vivo, time 41-69 day.
In series [11] the test system is COLO 205. As to the kind of experiment: In vivo inhibition of CDK4/CDK6 in human COLO 205 cells xenografted CD1 nu/nu mouse assessed as reduction in pHH3 expression at 12.5 to 50 mg/kg, po administered via gavage measured after 24 hrs by Western blot analysis. In kind it is functional, organism-based. As to conditions: dose 12.5-50 mg/kg.
For series [12], the system named is MV4-11. Put plainly: Cell cycle arrest in human MV4-11 cells assessed as accumulation of cells at S-phase at 0.16 uM measured after 24 hrs by propidium iodide staining based flow cytometry (reference value: 23.35%). In kind it is functional.
For series [13], the target named is Homeodomain-interacting protein kinase 2 (Homo sapiens) (UniProt Q9H2X6). The conditions noted are these: Sf21, dose 200.0 nM.
Chain of Homeodomain-interacting protein kinase 2 (Homo sapiens) (Q9H2X6 whole entry, looked up): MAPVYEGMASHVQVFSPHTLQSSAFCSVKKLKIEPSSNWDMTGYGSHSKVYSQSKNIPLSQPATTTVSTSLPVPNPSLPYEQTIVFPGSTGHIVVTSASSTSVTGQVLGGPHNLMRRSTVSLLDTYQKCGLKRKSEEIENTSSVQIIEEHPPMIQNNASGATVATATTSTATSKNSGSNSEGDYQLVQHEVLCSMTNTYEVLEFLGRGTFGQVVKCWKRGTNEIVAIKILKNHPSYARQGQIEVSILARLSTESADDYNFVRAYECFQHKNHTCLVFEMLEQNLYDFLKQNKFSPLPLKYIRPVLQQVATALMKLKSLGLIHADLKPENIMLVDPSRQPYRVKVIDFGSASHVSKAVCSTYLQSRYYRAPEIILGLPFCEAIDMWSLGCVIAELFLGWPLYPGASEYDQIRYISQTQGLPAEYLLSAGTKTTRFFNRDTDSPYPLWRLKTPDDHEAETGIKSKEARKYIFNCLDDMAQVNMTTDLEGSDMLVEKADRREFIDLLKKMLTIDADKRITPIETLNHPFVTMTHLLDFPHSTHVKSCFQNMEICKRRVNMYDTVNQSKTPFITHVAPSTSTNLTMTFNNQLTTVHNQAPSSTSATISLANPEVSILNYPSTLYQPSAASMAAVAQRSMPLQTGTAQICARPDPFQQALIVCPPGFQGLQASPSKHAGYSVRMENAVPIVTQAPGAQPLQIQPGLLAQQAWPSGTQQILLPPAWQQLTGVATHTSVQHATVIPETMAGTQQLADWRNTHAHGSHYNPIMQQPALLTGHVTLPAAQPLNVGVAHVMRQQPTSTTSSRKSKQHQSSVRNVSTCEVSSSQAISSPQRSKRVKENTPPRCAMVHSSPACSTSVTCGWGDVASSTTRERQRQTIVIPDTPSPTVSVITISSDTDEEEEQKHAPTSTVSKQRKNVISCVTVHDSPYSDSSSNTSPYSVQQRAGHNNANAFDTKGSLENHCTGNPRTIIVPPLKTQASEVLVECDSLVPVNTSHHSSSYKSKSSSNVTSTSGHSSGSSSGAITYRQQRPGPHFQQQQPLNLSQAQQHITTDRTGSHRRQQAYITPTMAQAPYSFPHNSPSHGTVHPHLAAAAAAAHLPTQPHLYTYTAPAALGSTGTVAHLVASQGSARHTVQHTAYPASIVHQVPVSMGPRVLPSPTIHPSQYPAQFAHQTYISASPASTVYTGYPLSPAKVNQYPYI
Description: Inhibition of recombinant human N-terminal His6-tagged HIPK2 (165 to 564 residues) expressed in baculovirus infected Sf21 insect cells at 200 nM using MBP as substrate relative to control
In series [14] the test system is COLO 205. The conditions noted are these: Mus musculus, CD1, dose 50.0 mg/kg, route po.
The test system of series [15] is COLO 205. As to conditions: Mus musculus, CD1, dose 50.0 mg/kg, route po, time lower 1.0 hrs, time upper […], TDE = time-dependent effect.
Series [16] is described as follows: Toxicity in human COLO 205 cells xenografted CD1 nu/nu mouse assessed as decrease in red cell mass at 50 mg/kg, po administered daily via gavage for 2 cycles of 3 weeks on/1 week rest and measured on day 41 to 69 by hematological analysis. The conditions noted are these: in vivo, time 41-69 day. Type of series: organism-based.
Series [17] in a line: Toxicity in human COLO 205 cells xenografted CD1 nu/nu mouse assessed as change in jejunum histology at 50 mg/kg, po administered daily via gavage for 56 days and measured on day 41 to 69 by histopathological analysis. As to conditions: in vivo, 1344 h, time 41-69 day. In kind it is organism-based.
The subject of series [18] is MV4-11. Put plainly: Cell cycle arrest in human MV4-11 cells assessed as accumulation of cells at S-phase at 0.08 uM measured after 24 hrs by propidium iodide staining based flow cytometry (reference value: 23.35%). Type of series: functional.
In series [19] the test system is COLO 205. The conditions noted are these: Mus musculus, CD1, dose 50.0 mg/kg, route po. This is another data set of the same source.
For series [20], the system named is Calu-6. As to conditions: Homo sapiens, dose 50.0 mg/kg, route po, time 16.0 day.
Series [21] has as its system MV4-11. As to the kind of experiment: Cell cycle arrest in human MV4-11 cells assessed as accumulation of cells at G2/M-phase at 0.04 uM measured after 24 hrs by propidium iodide staining based flow cytometry (reference value: 15.23%). Type of series: functional.

Broadly, the inhibition is the percentage by which the read-out fell short of the control.

Activity calls are given as the source filed them. The rule behind the calls is not given here.

As for `CCN1CCN(Cc2ccc(Nc3ncc(F)c(-c4cc(F)c5nc(C)n(C(C)C)c5c4)n3)nc2)CC1` [ABEMACICLIB], the Activity was 4.18% in the series on MV4-11 [1]; “Non-Toxic” in [2]; 2.99% in the series with MV4-11 [3]; “Non-Toxic” in [5]; “Non-Toxic” in [7]; 17.12% in the series on MDA-MB-231. Also, the Activity entry is “Non-Toxic” in [10]; 4.59% in the series on MV4-11 [12]; “Non-Toxic” in series [16]; “Non-Toxic” in [17]; 8.59% in the series on MV4-11 [18]; 6.21% in the series with MV4-11 [21]. Further, the inhibition is more than 90% in series [4], more than 90% in series [6], more than 90% in [13] and “Tde” in the series on COLO 205 [15]. Moreover, the inhibition entry in the series filed under Mus musculus, in the series with COLO 205 [14] and in the series with COLO 205 [19] was “inactive” throughout. Also, the inhibition result in the series with COLO 205 [8] and with COLO 205 [11] was “Active” each time. In addition, the TGI entry with Calu-6 [9] and with Calu-6 [20] was “Active” in each case.

The record behind these values is ChEMBL document CHEMBL5678811 (Invest New Drugs, 2014).
